Where “and” joins values, the source holds several entries; their conditions need not be identical. Identical values can stand only once. Counter-ions that a name gives are not always drawn.
Key:
[1] = tested on: fluid secretion caused by the enterotoxin(s) present in culture filtrate from an enteropathogenic strain of E. coli; experiment: animal or person; assay type: in vivo, infant mice; details: for activity in the reduction of fluid secretion (in words): mouse, in vivo
[2] = tested on: diarrhoea induced by culture filtrate from an enteropathogenic strain of E. coli; parameters: species or system 2-4 day old piglets; details: in vivo, po
E. coli P16 = experiment: Inhibition of Diarrhoea Resulting from E. coli Infection (piglets); assay type: in vivo, colostrum deprived piglets; details: Group B, Neomycin 30 mg/Kg po
Experimental: 2-4 day old piglets were dosed with the compound orally 45 mins prior to oral challenge with 25 ml of culture filtrate prepared from an enteropathogenic strain of E. coli. Control animals received drug vehicle 45 mins prior to challenge with a similar volume of material. […] After 6 hours observation some piglets were given a second dose of drug (or placebo) and observations were continued for a further six hours. The percentage inhibition in treated animals was determined as: [formula]
Colostrum deprived piglets were infected with 5 ml of an overnight culture containing 10^8 -10^9 viable E. coli P16/ml. The following day, piglets were matched by weight and scour score and then treated and observed for 6 hours in a similar manner to toxin challenged piglets, as described above.

Compound | inhibition in vivo at 10 mg/kg ([1]; Mus musculus, po) [%] | inhibition in vivo at 50 mg/kg ([1]; Mus musculus, po) [%] | inhibition in vivo at 200 mg/kg ([1]; Mus musculus, po) [%] | also measured
Nc1cc(Br)c(NC2=NCCN2)c(Br)c1 [Example 12, 2-(4-amino-2,6-dibromophenylimino)imidazolidine] | 48 | 65 | 85 | –
Cc1cc(N)cc(C)c1N=C1NCCN1 [Example 13, 2-(4-amino-2,6-dimethylphenylimino)imidazolidine] | 66 | 54 | 69 | % inhibition of scour [2]: 78% and 69% and 62%; Mean Scour Score ± SEM, drug treated [2]: 0.5 ± 0.2 and 0.6 ± 0.3 and 0.6 ± 0.2
NCc1cc(Cl)c(N=C2NCCN2)c(Cl)c1 [Example 14, 2-(4-aminomethyl-2,6-dichlorophenylimino)imidazolidine] | – | 38 | 39 | –
CCN(CC)Cc1cc(Cl)c(N=C2NCCN2)c(Cl)c1 [Example 15, 2-(2,6-dichloro-4-diethylaminomethylphenylimino)imidazolidine] | – | 28 | 37 | inhibition in vivo at 500 mg/kg ([1]; Mus musculus, po): 42%
Clc1cc(N=C2NCCN2)cc(Cl)c1NC1=NCCN1 [Example 16, 2-(2,6-dichloro-4-imidazolino-2-iminophenylimino)imidazolidine] | – | – | – | inhibition in vivo at 100 mg/kg ([1]; Mus musculus, po): 29%; inhibition in vivo at 400 mg/kg ([1]; Mus musculus, po): 41%
CNC(=Nc1cc(Cl)c(NC2=NCCN2)c(Cl)c1)NC [Example 17, 2-[2,6-dichloro-4-(1,3-dimethylguanidino)phenylimino]imidazolidine] | 33 | 37 | 53 | –
CN(C)C(=O)C(CCN1CCC(O)(c2ccc(Cl)cc2)CC1)(c1ccccc1)c1ccccc1 [Loperamide, reference compound] | – | – | – | activity in the reduction of fluid secretion (in words) [1]: considerably less active than the p-amino Clonidine dihydrochloride
CN(C1=NCCN1)c1c(Cl)cc(N)cc1Cl [R5 H, R6 CH3, Ra p-NH2, Rb o-Cl, R11 Cl] | 37 | 62 | 72 | –
CCNc1cc(Cl)c(NC2=NCCN2)c(Cl)c1 [R5 H, R6 H, Ra p-NHEt, Rb o-Cl, R11 Cl] | 59 | 79 | 97 | –
Nc1cc(Cl)c(NC2=NCCN2)c(Cl)c1 [p-Amino clonidine dihydrochloride, p-amino Clonidine dihydrochloride] | 59 | 78 | – | ED50 ([1]; Mus musculus, po, read-out: calculated ED50): 0.25 mg/kg; activity in the reduction of fluid secretion (in words) [1]: high level of activity; % inhibition of scour [2]: 79%; Mean Scour Score ± SEM, drug treated [2]: 0.4 ± 0.2
Neomycin | – | – | – | % inhibition of scour (E. coli P16): 16%; Mean Scour Score ± SEM (E. coli P16; placebo 2.9 ± 0.1): 2.4 ± 0.2; Mortality over 7 days (E. coli P16; placebo 25%): 0%
